Data taken from US20080119451A1, “Novel Benzamide Derivatives” (ASTRAZENECA AB, priority 2005, published 2008).

What was measured:
recombinant human HDAC1 = biological target: T1, recombinant human HDAC1 (Homo sapiens, UniProt Q13547); test: In vitro enzyme assay of recombinant HDAC1 (Fluor de Lys deacetylase assay); format: biochemical; conditions: recombinant human HDAC1 produced in Hi5 insect cells; acetylated histone H4 peptide substrate; read-out: Test (a) IC50
T1 construct: FLAG (C); made in house; host or cells: Hi5 insect cells
T1 sequence (Q13547 whole entry): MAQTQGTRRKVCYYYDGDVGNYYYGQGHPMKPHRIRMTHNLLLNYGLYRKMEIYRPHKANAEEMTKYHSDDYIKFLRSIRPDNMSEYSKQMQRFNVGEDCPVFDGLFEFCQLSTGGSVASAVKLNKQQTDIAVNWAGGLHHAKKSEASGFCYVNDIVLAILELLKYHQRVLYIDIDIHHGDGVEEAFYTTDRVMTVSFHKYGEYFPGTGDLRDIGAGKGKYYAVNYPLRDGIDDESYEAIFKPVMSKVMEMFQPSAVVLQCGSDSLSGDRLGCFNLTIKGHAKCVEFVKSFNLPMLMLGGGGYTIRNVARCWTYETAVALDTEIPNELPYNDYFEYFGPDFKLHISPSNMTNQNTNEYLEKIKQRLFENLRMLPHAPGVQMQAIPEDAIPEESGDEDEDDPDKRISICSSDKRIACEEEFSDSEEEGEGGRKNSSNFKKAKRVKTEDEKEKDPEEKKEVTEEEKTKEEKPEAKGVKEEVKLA
Description: (a) In Vitro Enzyme Assay of Recombinant HDAC1
HDAC inhibitors were screened against recombinant human HDAC1 produced in Hi5 insect cells. The enzyme was cloned with a FLAG tag at the C-terminal of the gene and affinity purified using Anti-FLAG M2 agarose from SIGMA (A2220).
The deacetylase assays were carried out in a 50 μl reaction. […] The reaction was stopped by addition of an equal volume (50 μl) Fluor de Lys developer (Biomol) containing Trichostatin A at 2 μM. […] IC50 values for HDAC enzyme inhibitors were determined by performing dose response curves with individual compounds and determining the concentration of inhibitor producing fifty percent decrease in the maximal signal (diluent control).

HCT116 cells = test: In vitro assay of inhibition of proliferation in whole cells (Promega MTS assay); format: cell-based; conditions: Homo sapiens, HCT-116, 72 hours treatment, read-out: Test (b) IC50
Description: (b) In Vitro Assay of Inhibition of Proliferation in Whole Cells
Inhibition of proliferation in whole cells was assayed using the Promega cell titer 96 aqueous proliferation assay (Promega #G5421). HCT116 cells were seeded in 96 well plates at 1×10^3 cells/well, and allowed to adhere overnight. They were treated with inhibitors for 72 hours. 20 μl of the tetrazolium dye MTS was added to each well and the plates were reincubated for 3 hours. Absorbance was then measured on a 96 well plate reader at […]. The IC50 values for HDAC inhibitors were determined by performing dose response curves with individual compounds and determining the concentration of inhibitor producing fifty percent decrease in maximal signal (diluent control).

IC50 (recombinant human HDAC1) | IC50 (HCT116 cells) | SMILES
19 nM | 238 nM | Cc1cc(CN2CCN(C(C)C)CC2)cnc1-c1ccc(C(=O)Nc2ccccc2N)cc1 [Example 2, N-(2-aminophenyl)-4-{5-[(4-isopropylpiperazin-1-yl)methyl]-3-methylpyridin-2-yl}benzamide]
89 nM | 2330 nM | Nc1ccccc1NC(=O)c1ccc(-c2ccccn2)cc1 [Comparator, N-(2-aminophenyl)-4-pyridin-2-ylbenzamide, reference compound]

SMILES | IC50 (recombinant human HDAC1) | IC50 (HCT116 cells)
Cc1cc(CN2CCC2)cnc1-c1ccc(C(=O)Nc2ccccc2N)cc1 [Example 4, N-(2-aminophenyl)-4-[5-(azetidin-1-ylmethyl)-3-methylpyridin-2-yl]benzamide] | 21 nM | 310 nM
